Data as given in PubChem BioAssay AID2060493 (Molecular Pharmacology Branch, DTP, NCI, 2025).
Where “and” joins values, the source holds several entries; their conditions need not be identical. Equal entries are not always repeated. Each block holds one molecule with its values, some of them ahead of it.

System: 616215-338-R-J1-PDC tumor spheroids, viability
Test: Anticancer human tumor 616215-338-R-J1-PDC patient-derived colon adenocarcinoma cell line growth inhibition [GQUAD]
Settings: spheroids with HUVEC and MSC; for viability, T/C: stronger effect = lower value
From the text: DNA G-quadruplex Stabilizer Agents in Combinations in Complex Spheroids
A high-throughput screen of multi-cell type tumor spheroids was designed to identify active combinations of DNA G-quadruplex stabilizer agents and targeted small molecules. Complex spheroids include a stromal component modeled by human endothelial cells (HUVEC) and fibroblasts modeled by human mesenchymal stem cells (MSCs). The concentration ranges selected for each drug and investigational agent were based upon clinically achievable concentrations if the clinical Cmax of the agent was known.
Compounds. The drugs and investigational agents: pidnarulex (CX-5461; NSC782164), APTO-253 (NSC789042), BRACO-19 (NSC847499), peposertib (NSC802822), ceralasertib (NSC780249), elimusertib (NSC800525), camonsertib (NSC841442), AZD-1390 (NSC803789), olaparib (NSC753686), talazoparib (NSC767125), ART-558 (NSC835418), sotorasib (NSC818433), MRTX-1133 (NSC836407), SN-38 (NSC673596), topotecan (NSC609699), etoposide (NSC141540), doxorubicin (NSC123127), gemcitabine (NSC613327), 5-fluorouracil (NSC19893), paclitaxel (NSC125973), vemurafenib (NSC761431), panobinostat (NSC761190), R-306465 (JNJ-16241199; NSC773264), adavosertib (NSC754352), TP-3654 (NSC805149), carboplatin (NSC241240), KSQ-4279 (NSC840948), and staurosporine (NSC755774) were obtained from the National Cancer Institute (NCI) Developmental Therapeutics Program Chemical Repository (34). The FDA-approved anticancer drug set is available from the NCI Developmental Therapeutics Program. […] The stock solutions were prepared in dimethyl sulfoxide (DMSO, Sigma-Aldrich, St. Louis, MO, cat. D2650) at 800-fold the tested concentration and stored at -70 degrees C prior to their use. All drugs and investigational agents were tested over a range starting from a high concentration at or near the clinical Cmax and decreasing in half-log increments. If the clinical Cmax for an agent had not been determined, the highest concentration tested was 10 microM.
2.3 Cell Culture. All cells were maintained in an incubator at 37 degrees C and 5% CO2 with 95% humidity. The PDC lines were cultured according to standard operating procedures established by the NCI PDMR. All PDCs were thawed and cultured in Matrigel-coated flasks prepared with a working solution of 1X Ham's F-12 nutrient mix, without supplementation (Invitrogen, cat. 11765054), 100 U/mL penicillin-streptomycin (Invitrogen, cat. 15140122), and 2.5% Matrigel (Corning Inc., cat. 354248) for the first three passages. The 857933-349-R-J2-PDC line was cultured in 6C/Colon 1B media, which includes advanced DMEM/F-12 (Thermo Fisher Scientific, cat. 12634028), 10 mM HEPES (Thermo Fisher Scientific, cat. 15630080), 1X GlutaMAX supplement (Thermo Fisher Scientific, cat. 35050061), 0.1 mg/mL primocin (InvivoGen, cat. ant-pm-2), 10% defined fetal bovine serum, heat inactivated (HyClone Laboratories Inc., cat. SH30070.03HI), 50% L-WRN conditioned media (ATCC, cat. CRL-3276), 1.25 mM N-Acetyl-L-cysteine (Sigma-Aldrich, cat. A9165), 10 mM nicotinamide (Sigma-Aldrich, cat. N0636), 1X B-27 supplement (Thermo Fisher Scientific, cat. 17504044), 1X N-2 supplement (Thermo Fisher Scientific, cat. 17502048), 10 microM Y-27632 dihydrochloride (Tocris Bioscience, cat. 1254), and 50 ng/mL human EGF recombinant protein (Thermo Fisher Scientific, cat. PHG0311). The 485176-168-R4-J1-PDC line was cultured in Panc media, which includes all 6C/Colon 1B media components plus 100 ng/mL human FGF-10 (Thermo Fisher Scientific, cat. 100-26), 500 nM SB-431542 (Selleckchem, cat. S1067), and gastrin (Tocris, cat. 3006).
[…]

[1] = compound alone, run of 04/22/2024
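Also: spheroids exposed to agents for 7 days before readout.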
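For viability, T/C in this document: percent viability relative to DMSO vehicle control wells taken as 100%.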

SMILES: Cn1ncnc1[C@H]1c2n[nH]c(=O)c3cc(F)cc(c23)N[C@@H]1c1ccc(F)cc1 + CN(C)c1ccc(Nc2c3ccc(NC(=O)CCN4CCCC4)cc3nc3cc(NC(=O)CCN4CCCC4)ccc23)cc1
- IC50 (curve of first compound, second compound 0.0316 µM): > 316 nM
- IC50 (curve of first compound, second compound 0.1 µM): > 316 nM
- IC50 (curve of first compound, second compound 0.316 µM): > 316 nM
- IC50 (curve of first compound, second compound 1 µM): > 316 nM
- IC50 (curve of first compound, second compound 3.16 µM): > 316 nM
- IC50 (curve of first compound, second compound 10 µM): > 316 nM
- viability, T/C (second compound 0.0316 µM, first compound 0.000999 µM): 103%
- viability, T/C (second compound 0.0316 µM, first compound 0.00316 µM): 101%
- viability, T/C (second compound 0.0316 µM, first compound 0.00999 µM): 99.7%
- viability, T/C (second compound 0.0316 µM, first compound 0.0316 µM): 104%
- viability, T/C (second compound 0.0316 µM, first compound 0.0999 µM): 112%
- viability, T/C (second compound 0.0316 µM, first compound 0.316 µM): 97%
- viability, T/C (second compound 0.1 µM, first compound 0.000999 µM): 99.5%
- viability, T/C (second compound 0.1 µM, first compound 0.00316 µM): 113%
- viability, T/C (second compound 0.1 µM, first compound 0.00999 µM): 104%
- viability, T/C (second compound 0.1 µM, first compound 0.0316 µM): 99.8%
- viability, T/C (second compound 0.1 µM, first compound 0.0999 µM): 95%
- viability, T/C (second compound 0.1 µM, first compound 0.316 µM): 96.6%
- viability, T/C (second compound 0.316 µM, first compound 0.000999 µM): 98.2%
- viability, T/C (second compound 0.316 µM, first compound 0.00316 µM): 92.2%
- viability, T/C (second compound 0.316 µM, first compound 0.00999 µM): 108%
- viability, T/C (second compound 0.316 µM, first compound 0.0316 µM): 111%
- viability, T/C (second compound 0.316 µM, first compound 0.0999 µM): 102%
- viability, T/C (second compound 0.316 µM, first compound 0.316 µM): 106%
- viability, T/C (second compound 1 µM, first compound 0.000999 µM): 100%
- viability, T/C (second compound 1 µM, first compound 0.00316 µM): 91.9%
- viability, T/C (second compound 1 µM, first compound 0.00999 µM): 104%
- viability, T/C (second compound 1 µM, first compound 0.0316 µM): 103%
- viability, T/C (second compound 1 µM, first compound 0.0999 µM): 98.1%
- viability, T/C (second compound 1 µM, first compound 0.316 µM): 87.7%
- viability, T/C (second compound 3.16 µM, first compound 0.000999 µM): 103%
- viability, T/C (second compound 3.16 µM, first compound 0.00316 µM): 92.2%
- viability, T/C (second compound 3.16 µM, first compound 0.00999 µM): 94.2%
- viability, T/C (second compound 3.16 µM, first compound 0.0316 µM): 101%
- viability, T/C (second compound 3.16 µM, first compound 0.0999 µM): 90.5%
- viability, T/C (second compound 3.16 µM, first compound 0.316 µM): 95.4%
- viability, T/C (second compound 10 µM, first compound 0.000999 µM): 94.4%
- viability, T/C (second compound 10 µM, first compound 0.00316 µM): 77.8%
- viability, T/C (second compound 10 µM, first compound 0.00999 µM): 91.9%
- viability, T/C (second compound 10 µM, first compound 0.0316 µM): 89%
- viability, T/C (second compound 10 µM, first compound 0.0999 µM): 90.9%
- viability, T/C (second compound 10 µM, first compound 0.316 µM): 86.7%

SMILES: CN(C)c1ccc(Nc2c3ccc(NC(=O)CCN4CCCC4)cc3nc3cc(NC(=O)CCN4CCCC4)ccc23)cc1
- viability, T/C (compound 0.0316 µM): 105% [middle of 12 runs]
- viability, T/C (compound 0.1 µM): 104% [middle of 12 runs]
- viability, T/C (compound 0.316 µM): 102% [middle of 12 runs]
- viability, T/C (compound 1 µM): 100% [middle of 12 runs]
- viability, T/C (compound 3.16 µM): 99.6% [middle of 12 runs]
- viability, T/C (compound 10 µM): 93.9% [middle of 12 runs]
- IC50 [1]: > 10000 nM

SMILES: CC(C)(O)C1CCC(Nc2ccc3ncc(-c4cccc(C(F)(F)F)c4)n3n2)CC1 (stereo unspecified)
- viability, T/C (compound 0.0316 µM): 103% and 105% (2×)
- viability, T/C (compound 0.1 µM): 92.2% and 90.8% and 100%
- viability, T/C (compound 0.316 µM): 108% and 95.6% and 93.2%
- viability, T/C (compound 1 µM): 16.1% and 27.9% and 33.8%
- viability, T/C (compound 3.16 µM): 0.52% and 1.27% and 3.2%
- viability, T/C (compound 10 µM): 12.4% and 1.83% and 2.83%
- IC50 (curve of compound): 631 nM and 686 nM and 729 nM

SMILES: Cc1[nH]c2ccc(F)cc2c1-c1nc2c3cccnc3c3ncccc3c2[nH]1
- viability, T/C (compound 0.0316 µM): 105% [middle of 12 runs]
- viability, T/C (compound 0.1 µM): 104% [middle of 12 runs]
- viability, T/C (compound 0.316 µM): 99.5% [middle of 12 runs]
- viability, T/C (compound 1 µM): 100% [middle of 12 runs]
- viability, T/C (compound 3.16 µM): 91.3% [middle of 12 runs]
- viability, T/C (compound 10 µM): 98% [middle of 12 runs]
- IC50 (compound alone, run of 04/16/2024): > 10000 nM
- IC50 [1]: > 10000 nM

SMILES: C#Cc1c(F)ccc2cc(O)cc(-c3ncc4c(N5CC6CCC(C5)N6)nc(OCC56CCCN5CC(F)C6)nc4c3F)c12 (stereo unspecified)
- viability, T/C (compound 0.0316 µM): 100% and 113% and 106%
- viability, T/C (compound 0.1 µM): 90.1% and 98.3% and 110%
- viability, T/C (compound 0.316 µM): 102% and 104% and 110%
- viability, T/C (compound 1 µM): 80.2% and 106% and 104%
- viability, T/C (compound 3.16 µM): 68% and 106% and 91.7%
- viability, T/C (compound 10 µM): 45.8% and 63.5% and 59.2%
- IC50 (curve of compound): 8040 nM and > 10000 nM

The next lines start with results.

- IC50 (curve of compound): 411 nM and 470 nM and 878 nM
SMILES: COc1cccc2c1C(=O)c1c(O)c3c(c(O)c1C2=O)CC(O)(C(=O)CO)CC3OC1CC(N)C(O)C(C)O1 (stereo unspecified)
- viability, T/C (compound 0.0316 µM): 99.9% and 99.3% and 97.8%
- viability, T/C (compound 0.1 µM): 86.1% and 94.3% and 81%
- viability, T/C (compound 0.316 µM): 45.8% and 52.1% and 60.8%
- viability, T/C (compound 1 µM): 33.6% and 31% and 57.7%
- viability, T/C (compound 3.16 µM): 24.8% and 24.6% and 27.7%
- viability, T/C (compound 10 µM): 1.26% and 0.35% and 6.04%

- IC50 (curve of compound): > 10000 nM
SMILES: CC(C)n1c(=O)n(C)c2cnc3cc(F)c(-c4ccc(OCCCN5CCCCC5)nc4)cc3c21
- viability, T/C (compound 0.0316 µM): 107% and 104% and 97.4%
- viability, T/C (compound 0.1 µM): 99% and 102% and 91.9%
- viability, T/C (compound 0.316 µM): 106% and 98.5% and 96.9%
- viability, T/C (compound 1 µM): 110% and 101% and 92.8%
- viability, T/C (compound 3.16 µM): 106% and 110% and 105%
- viability, T/C (compound 10 µM): 53% and 94.7% and 96.5%

- IC50 (curve of compound): > 10000 nM and 9780 nM
SMILES: COc1ccc([C@@H](O)c2cc(-c3ncnc4cc(N5CCOCC5)ccc34)c(F)cc2Cl)nn1
- viability, T/C (compound 0.0316 µM): 115% and 98% and 99.7%
- viability, T/C (compound 0.1 µM): 101% and 102% and 89.1%
- viability, T/C (compound 0.316 µM): 98% and 106% and 97.2%
- viability, T/C (compound 1 µM): 96.9% and 97.6% and 92.6%
- viability, T/C (compound 3.16 µM): 97.4% and 100% and 94.8%
- viability, T/C (compound 10 µM): 56.7% and 49% and 51.9%

- IC50 (curve of compound): > 316 nM and 273 nM and 297 nM
SMILES: CC[C@@]1(O)C(=O)OCc2c1cc1n(c2=O)Cc2cc3c(CN(C)C)c(O)ccc3nc2-1
- viability, T/C (compound 0.000999 µM): 106% and 109% and 103%
- viability, T/C (compound 0.00316 µM): 93.6% and 97% and 92.9%
- viability, T/C (compound 0.00999 µM): 92.7% and 99.7% and 101%
- viability, T/C (compound 0.0316 µM): 92.8% and 96.2% and 101%
- viability, T/C (compound 0.0999 µM): 97.8% and 89% and 91.2%
- viability, T/C (compound 0.316 µM): 50.1% and 44.3% and 47.5%

- IC50 (curve of compound): > 10000 nM
SMILES: Cc1cccc(N(C)C(=O)C2C(O)CCN2c2nc(C)cc(C(F)(F)F)c2C#N)c1 (stereo unspecified)
- viability, T/C (compound 0.0316 µM): 91.4% and 99.2% and 101%
- viability, T/C (compound 0.1 µM): 106% and 94.5% and 102%
- viability, T/C (compound 0.316 µM): 94.1% and 103% and 102%
- viability, T/C (compound 1 µM): 94% and 96.9% and 105%
- viability, T/C (compound 3.16 µM): 102% and 98.7% and 113%
- viability, T/C (compound 10 µM): 102% and 92.6% and 103%
